Entries after “also recorded” stand apart in the source; their conditions may differ. Read-outs that look alike come from different tables or passages of the source.
What was measured:
serotonin transporter [1] = settings: carbon-11 label; cited from earlier work
[2] = target: T1, human serotonin transporter (Homo sapiens, UniProt P31645); assay: Binding site inhibition in HEK-293 cell membranes transfected with human serotonin transporter ([3H]Citalopram); settings: for in vitro affinity/selectivity for transporter sites: human transporters, Table 3
T1 construct: expressed in transfected cells; host or cells: HEK-293, stably transfected
T1 sequence (P31645 whole entry): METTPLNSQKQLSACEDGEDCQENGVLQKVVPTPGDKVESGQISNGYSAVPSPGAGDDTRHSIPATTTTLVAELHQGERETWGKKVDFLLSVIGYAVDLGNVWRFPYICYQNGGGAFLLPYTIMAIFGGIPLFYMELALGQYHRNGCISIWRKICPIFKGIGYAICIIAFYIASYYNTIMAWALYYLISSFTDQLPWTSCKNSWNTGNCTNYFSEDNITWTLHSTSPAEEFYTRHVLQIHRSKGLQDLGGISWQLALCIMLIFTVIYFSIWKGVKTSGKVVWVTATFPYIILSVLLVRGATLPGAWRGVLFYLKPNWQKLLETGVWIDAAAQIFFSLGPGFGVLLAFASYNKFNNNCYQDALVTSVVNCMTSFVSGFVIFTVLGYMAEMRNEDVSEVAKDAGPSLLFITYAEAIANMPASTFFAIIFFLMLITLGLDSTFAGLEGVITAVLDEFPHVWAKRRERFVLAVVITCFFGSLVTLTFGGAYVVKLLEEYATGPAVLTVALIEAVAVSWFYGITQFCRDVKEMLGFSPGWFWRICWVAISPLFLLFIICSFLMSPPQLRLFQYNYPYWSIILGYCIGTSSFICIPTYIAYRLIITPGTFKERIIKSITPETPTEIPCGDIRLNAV

[3] = target: T2, human dopamine transporter (Homo sapiens, UniProt Q01959); assay: Binding site inhibition in MDCK cell membranes transfected with human dopamine transporter ([3H]WIN 35428)
T2 construct: expressed in transfected cells; host or cells: MDCK (dog kidney) cells, stably transfected
T2 sequence (Q01959 whole entry): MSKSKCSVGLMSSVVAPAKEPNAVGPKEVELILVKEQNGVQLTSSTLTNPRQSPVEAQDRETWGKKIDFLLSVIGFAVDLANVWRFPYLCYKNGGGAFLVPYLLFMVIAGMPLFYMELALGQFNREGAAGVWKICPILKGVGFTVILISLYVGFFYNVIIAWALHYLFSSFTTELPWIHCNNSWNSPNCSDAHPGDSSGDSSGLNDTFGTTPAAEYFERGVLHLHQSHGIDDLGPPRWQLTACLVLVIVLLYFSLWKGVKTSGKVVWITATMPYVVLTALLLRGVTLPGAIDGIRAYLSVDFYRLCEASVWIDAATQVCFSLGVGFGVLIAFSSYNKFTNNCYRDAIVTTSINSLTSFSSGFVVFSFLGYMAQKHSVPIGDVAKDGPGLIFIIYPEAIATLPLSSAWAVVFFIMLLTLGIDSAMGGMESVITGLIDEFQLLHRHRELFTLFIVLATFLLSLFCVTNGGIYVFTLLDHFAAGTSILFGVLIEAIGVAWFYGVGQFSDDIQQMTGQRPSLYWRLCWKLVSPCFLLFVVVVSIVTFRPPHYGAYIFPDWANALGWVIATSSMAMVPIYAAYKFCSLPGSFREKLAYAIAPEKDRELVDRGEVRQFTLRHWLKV

[4] = target: T3, human norepinephrine transporter (Homo sapiens, UniProt P23975); assay: Binding site inhibition in HEK-293 cell membranes transfected with human norepinephrine transporter ([3H]Nisoxetine); settings: HEK-293 cells, human NE transporter; vs. [3H]Nisoxetine
T3 construct: expressed in transfected cells; host or cells: HEK-293, stably transfected
T3 sequence (P23975 whole entry): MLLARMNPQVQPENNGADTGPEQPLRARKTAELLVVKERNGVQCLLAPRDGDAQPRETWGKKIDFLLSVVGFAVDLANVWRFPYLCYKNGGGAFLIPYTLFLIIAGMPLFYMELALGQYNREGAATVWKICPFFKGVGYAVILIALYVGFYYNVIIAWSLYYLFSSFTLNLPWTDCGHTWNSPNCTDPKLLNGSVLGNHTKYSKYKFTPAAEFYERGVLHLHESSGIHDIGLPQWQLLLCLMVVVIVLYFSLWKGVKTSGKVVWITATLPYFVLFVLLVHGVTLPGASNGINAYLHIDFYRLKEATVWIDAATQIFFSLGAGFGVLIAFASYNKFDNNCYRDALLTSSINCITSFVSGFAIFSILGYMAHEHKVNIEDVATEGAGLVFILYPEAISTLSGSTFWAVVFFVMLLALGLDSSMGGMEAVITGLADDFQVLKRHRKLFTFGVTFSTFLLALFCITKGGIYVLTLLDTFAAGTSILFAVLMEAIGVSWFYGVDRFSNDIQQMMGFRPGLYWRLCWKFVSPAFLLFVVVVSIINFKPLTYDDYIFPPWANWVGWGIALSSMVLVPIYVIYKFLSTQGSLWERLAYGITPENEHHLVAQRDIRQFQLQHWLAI
Text: ^2 [^3 H]Nisoxetine as reference/control for norepinephrine

dopamine transporter = target: T4, dopamine transporter (Rattus norvegicus, UniProt P23977); assay: Transporter binding site inhibition in rat brain striatal and cortical membranes - dopamine transporter ([3H]WIN 35428)
T4 construct: in rat cortical and striatal homogenates; from tissue; host or cells: rat brain, striatal and cortical homogenates/membranes
T4 sequence (P23977 whole entry): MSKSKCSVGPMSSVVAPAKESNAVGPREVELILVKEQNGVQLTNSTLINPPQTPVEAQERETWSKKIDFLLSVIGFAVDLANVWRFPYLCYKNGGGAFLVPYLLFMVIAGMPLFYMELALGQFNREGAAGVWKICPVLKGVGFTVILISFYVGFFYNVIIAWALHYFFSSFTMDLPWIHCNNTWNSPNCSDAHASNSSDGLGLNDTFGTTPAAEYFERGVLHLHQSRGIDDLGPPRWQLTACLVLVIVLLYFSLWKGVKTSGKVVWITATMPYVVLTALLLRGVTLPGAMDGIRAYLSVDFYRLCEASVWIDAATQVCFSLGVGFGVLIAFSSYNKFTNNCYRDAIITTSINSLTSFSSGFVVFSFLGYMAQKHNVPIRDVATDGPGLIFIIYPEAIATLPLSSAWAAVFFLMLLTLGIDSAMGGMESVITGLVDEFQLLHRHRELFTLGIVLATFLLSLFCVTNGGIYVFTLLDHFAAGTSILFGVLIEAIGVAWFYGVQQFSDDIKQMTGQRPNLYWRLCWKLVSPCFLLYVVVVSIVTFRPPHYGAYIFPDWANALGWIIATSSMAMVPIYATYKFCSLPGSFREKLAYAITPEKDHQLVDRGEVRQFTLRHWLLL
Text: (§1) Transporter Binding Site Inhibition Data for Various
(§2) Ligands in Rat Brain Striatial and Cortical Membranes

serotonin transporter [5] = target: T5, serotonin transporter (Rattus norvegicus, UniProt P31652); assay: Transporter binding site inhibition in rat brain striatal and cortical membranes - serotonin transporter ([3H]citalopram); settings: for in vitro affinity/selectivity for the serotonin transporter: rat membranes, Table 2
T5 construct: in rat cortical and striatal homogenates; from tissue; host or cells: rat brain, striatal and cortical homogenates/membranes
T5 sequence (P31652 whole entry): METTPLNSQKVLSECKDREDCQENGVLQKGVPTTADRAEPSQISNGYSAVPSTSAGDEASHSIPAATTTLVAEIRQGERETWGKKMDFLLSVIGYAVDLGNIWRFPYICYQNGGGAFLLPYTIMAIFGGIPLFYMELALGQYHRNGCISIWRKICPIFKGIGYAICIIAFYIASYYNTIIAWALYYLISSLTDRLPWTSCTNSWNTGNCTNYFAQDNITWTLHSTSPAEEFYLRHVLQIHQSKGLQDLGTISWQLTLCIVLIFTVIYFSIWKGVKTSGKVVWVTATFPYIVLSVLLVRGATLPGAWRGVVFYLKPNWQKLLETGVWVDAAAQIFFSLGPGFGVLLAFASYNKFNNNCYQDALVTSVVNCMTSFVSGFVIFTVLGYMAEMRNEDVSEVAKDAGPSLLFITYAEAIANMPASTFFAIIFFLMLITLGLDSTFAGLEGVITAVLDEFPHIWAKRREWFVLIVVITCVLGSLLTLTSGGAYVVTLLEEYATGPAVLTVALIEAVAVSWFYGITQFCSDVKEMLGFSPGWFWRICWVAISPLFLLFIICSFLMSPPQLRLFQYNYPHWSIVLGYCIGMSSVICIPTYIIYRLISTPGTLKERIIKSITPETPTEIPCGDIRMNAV
Text: as §1, §2

[6] = target: T6, norepinephrine transporter (Rattus norvegicus, UniProt Q63380); assay: Transporter binding site inhibition in rat brain striatal and cortical membranes - norepinephrine transporter ([3H]desmethylimipramine); settings: vs. [3H]desmethylimipramine, read-out: NE Ki
T6 construct: in rat cortical and striatal homogenates; from tissue; host or cells: rat brain, striatal and cortical homogenates/membranes
T6 sequence (Q63380 1-617): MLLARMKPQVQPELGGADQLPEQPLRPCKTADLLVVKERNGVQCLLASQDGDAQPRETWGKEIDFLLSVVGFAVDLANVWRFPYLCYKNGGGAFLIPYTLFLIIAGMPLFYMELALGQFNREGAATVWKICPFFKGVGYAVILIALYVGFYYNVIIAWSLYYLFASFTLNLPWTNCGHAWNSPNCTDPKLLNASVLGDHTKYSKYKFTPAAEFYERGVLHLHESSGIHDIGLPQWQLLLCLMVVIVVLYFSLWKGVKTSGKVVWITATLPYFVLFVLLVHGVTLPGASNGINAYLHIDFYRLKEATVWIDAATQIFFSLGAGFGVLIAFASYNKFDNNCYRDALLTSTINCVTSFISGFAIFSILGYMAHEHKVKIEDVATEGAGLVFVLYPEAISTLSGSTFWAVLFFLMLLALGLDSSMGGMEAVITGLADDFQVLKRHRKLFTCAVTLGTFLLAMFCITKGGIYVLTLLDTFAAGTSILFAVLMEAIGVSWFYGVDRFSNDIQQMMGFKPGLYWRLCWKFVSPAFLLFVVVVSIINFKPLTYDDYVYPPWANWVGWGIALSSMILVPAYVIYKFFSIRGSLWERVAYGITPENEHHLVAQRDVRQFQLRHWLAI
Text: as §1, §2

[7] = test system: serotonin transporter; dopamine transporter; assay: Regional brain uptake with and without preblocking by paroxetine or GBR 12909 (Table 5); assay type: in vivo, Sprague Dawley rats; settings: rat, 60 min
Procedure: (§3) Regional Uptake (% dose/gram) and Ratios of
(§4) 95% ee(6S, 10bR)-I-McN in Sprague Dawley Rats
(§5) (n = 4) at 60 Min Following Preblocking
(§6) (5 mg/kg i.v. 15 min prior to radioligand)

[8] = as above; assay type: in vivo, Sprague Dawley rats; settings: rat, iv, 60 min
Procedure: as §3, §4, §5, §6

[9] = HEK-293 cells, human serotonin transporter, vs. [3H]Citalopram, read-out: 5-HT Ki
[10] = MDCK cells, human DA transporter, vs. [3H]WIN 35428, read-out: DA Ki
[11] = rat striatal/cortical membranes, vs. [3H]WIN 35428, read-out: DA Ki
[12] = rat striatal/cortical membranes, vs. [3H]citalopram, read-out: 5-HT Ki
[13] = dopamine blocker GBR 12909 5 mg/kg i.v. 15 min prior
[14] = serotonin blocker paroxetine 5 mg/kg i.v. 15 min prior

[11CH3]Sc1ccc([C@H]2CN3CCC[C@H]3c3ccccc32)cc1 [Carbon-11 McN-5652Z]
accumulation in brain regions (serotonin transporter [1]): greatest accumulation in brain regions rich in serotoninergic neurons

Fc1cccc2c1[C@H]1CCCN1C[C@H]2c1ccc(Br)cc1 (relative stereo) [racemic Br, X = F at position 10]
Ki [2, 9]: 1.6 nM
Ki [3, 10]: 0.15 nM
affinity and selectivity for the dopamine transporter ([3]; human transporters, Table 3): high affinity and selectivity for the dopamine transporter
Ki [4]: 5 nM

Brc1ccc([C@@H]2CN3CCC[C@@H]3c3ccccc32)cc1 (relative stereo) [racemic Br]
Ki [2, 9]: 0.68 nM
Ki [3, 10]: 0.07 nM
Ki [4]: 2.3 nM

COC(=O)[C@H]1[C@@H](c2ccc(I)cc2)C[C@@H]2CC[C@H]1N2C [RTI-55 (CIT), reference compound]
Ki [2, 9]: 0.67 nM
in vitro affinity/selectivity for transporter sites [2]: high affinity for both serotonin and dopamine transporter sites, and is selective for these two sites versus norepinephrine transporter site
Ki [3]: 0.47 nM
Ki [4]: 38.9 nM

FC/C=C\c1ccc([C@@H]2CN3CCC[C@@H]3c3ccccc32)cc1 (relative stereo) [compound 19, trans-1,2,3,5,6,10b-hexahydro-6-[4'Z-(3-fluoro-1-propenyl)phenyl]pyrrolo-[2,1-a]isoquinoline]
Ki [2]: 1 nM
in vitro affinity/selectivity for transporter sites [2]: high selectivity and affinity for serotonin transporter sites, compared with dopamine transporter site; also recorded: more selective than McN-5652Z for the serotonin transporter site, compared to the dopamine transporter site; also recorded: very high and equal affinity for the serotonin transporter site
Ki [3, 10]: 220 nM
Ki (dopamine transporter): 221 nM
Ki (serotonin transporter [5]): 2.8 nM
in vitro affinity/selectivity for the serotonin transporter (serotonin transporter [5]): high affinity for and the most selectivity for the serotonin transporter

FCC#Cc1ccc([C@@H]2CN3CCC[C@@H]3c3ccccc32)cc1 (relative stereo) [racemic C=CCH2 F]
Ki [2, 9]: 8.6 nM
Ki [3, 10]: 11.3 nM
Ki [4]: 24 nM

Brc1ccc([C@@H]2CN3CCC[C@@H]3c3ccccc32)cc1 (relative stereo) [compound 5, trans-1,2,3,5,6,10b-hexahydro-6-[4-bromophenyl]pyrrolo-[2,1-a]isoquinoline]
Ki (dopamine transporter; [11]): 9.6 nM
Ki [6]: 2390 nM
in vitro affinity/selectivity for the serotonin transporter (serotonin transporter [5]): high in vitro affinity for the serotonin transporter
Ki (serotonin transporter [5]; [12]): 5.1 nM

Ic1ccc([C@@H]2CN3CCC[C@@H]3c3ccccc32)cc1 [compound 6, trans (95% ee) (6S, 10bR), (+)-(6S, 10bR)-1,2,3,5,6,10b-hexahydro-6-(4'-iodophenyl)pyrrolo[2,1-a]isoquinoline]
Ki [2]: 0.9 nM
Ki [3, 10]: 0.9 nM
Ki [4]: 10 nM

[123I]c1ccc([C@@H]2CN3CCC[C@@H]3c3ccccc32)cc1 [95% ee(6S, 10bR)-I-McN, [^123 I](+)-Trans-1,2,3,5,6,10b-hexaydro-6-[4-iodophenyl]-pyrrolo[2,1-a]isoquinoline]
Cortex/Cereb ratio [7, 13]: 3.82
Hypthal/Cereb ratio [7, 13]: 6.6
PrefCx/Cereb ratio [7, 13]: 5.1
Striatum/Cereb ratio [7, 13]: 2.47
Cortex/Cereb ratio ([7]; no blocker): 4.08
Hypthal/Cereb ratio ([7]; no blocker): 8.15
PrefCx/Cereb ratio ([7]; no blocker): 5.0
Striatum/Cereb ratio ([7]; no blocker): 4.8
Cortex/Cereb ratio [7, 14]: 4.18
Hypthal/Cereb ratio [7, 14]: 4.65
PrefCx/Cereb ratio [7, 14]: 4.6
Striatum/Cereb ratio [7, 14]: 3.2
tissue uptake at 1 h ([8]; cerebellum, 5 mg/kg, dopamine blocker GBR 12909 5 mg/kg i.v. 15 min prior, read-out: Cerebellum uptake): 0.55 %ID/g
tissue uptake at 1 h ([8]; cerebellum, no blocker, read-out: Cerebellum uptake): 0.46 %ID/g
tissue uptake at 1 h ([8]; cerebellum, serotonin blocker paroxetine 5 mg/kg i.v. 15 min prior, read-out: Cerebellum uptake): 0.43 %ID/g
tissue uptake at 1 h ([8]; cortex, 5 mg/kg, dopamine blocker GBR 12909 5 mg/kg i.v. 15 min prior, read-out: Cortex uptake): 2.1 %ID/g
tissue uptake at 1 h ([8]; cortex, no blocker, read-out: Cortex uptake): 1.88 %ID/g
tissue uptake at 1 h ([8]; cortex, serotonin blocker paroxetine 5 mg/kg i.v. 15 min prior, read-out: Cortex uptake): 1.8 %ID/g
tissue uptake at 1 h ([8]; hypothalamus, 5 mg/kg, dopamine blocker GBR 12909 5 mg/kg i.v. 15 min prior, read-out: Hypothalamus uptake): 3.62 %ID/g
tissue uptake at 1 h ([8]; hypothalamus, no blocker, read-out: Hypothalamus uptake): 3.75 %ID/g
tissue uptake at 1 h ([8]; hypothalamus, serotonin blocker paroxetine 5 mg/kg i.v. 15 min prior, read-out: Hypothalamus uptake): 2 %ID/g
tissue uptake at 1 h ([8]; prefrontal cortex, 5 mg/kg, dopamine blocker GBR 12909 5 mg/kg i.v. 15 min prior, read-out: Prefrontal Cortex uptake): 2.8 %ID/g
tissue uptake at 1 h ([8]; prefrontal cortex, no blocker, read-out: Prefrontal Cortex uptake): 2.3 %ID/g
tissue uptake at 1 h ([8]; prefrontal cortex, serotonin blocker paroxetine 5 mg/kg i.v. 15 min prior, read-out: Prefrontal Cortex uptake): 1.98 %ID/g
tissue uptake at 1 h ([8]; striatum, 5 mg/kg, dopamine blocker GBR 12909 5 mg/kg i.v. 15 min prior, read-out: Striatum uptake): 1.36 %ID/g
tissue uptake at 1 h ([8]; striatum, no blocker, read-out: Striatum uptake): 2.21 %ID/g
tissue uptake at 1 h ([8]; striatum, serotonin blocker paroxetine 5 mg/kg i.v. 15 min prior, read-out: Striatum uptake): 1.39 %ID/g

Ic1ccc([C@@H]2CN3CCC[C@@H]3c3ccccc32)cc1 (relative stereo) [compound 6, trans-1,2,3,5,6,10b-hexahydro-6-[4-iodophenyl]pyrrolo-[2,1-a]isoquinoline]
Ki [2]: 0.9 nM
in vitro affinity/selectivity for transporter sites [2]: high affinity for both serotonin and dopamine transporter sites, and is selective for these two sites versus norepinephrine transporter site
Ki [3, 10]: 0.9 nM
Ki [4]: 10 nM
Ki (dopamine transporter; [11]): 14 nM
Ki [6]: 961 nM
in vitro affinity/selectivity for the serotonin transporter (serotonin transporter [5]): high in vitro affinity and good selectivity for the serotonin transporter
Ki (serotonin transporter [5]; [12]): 2.3 nM
